According to paper PMC3761409 (Journal of molecular recognition : JMR, 2013):
No end group written: not given here.

B1: full-length Bad: full-length Bad protein (Bcl2-associated death promoter) (protein, UniProt Q92934 1-168, looked up)
chain: MFQIPEFEPSEQEDSSSAERGLGPSPAGDGPSGSGKHHRQAPGLLWDASHQQEQPTSSSHHGGAGAVEIRSRHSSYPAGTEDDEGMGEEPSPFRGRSRSAPPNLWAAQRYGRELRRMSDEFVDSFKKGLPRPKSAGTATQMRQSSSWTRVFQSWWDRNLGRGSSAPSQ
modifications: full-length

How the values were obtained:
[1] = molecular target: T1, Human Bcl2 (residues 1-205) (Homo sapiens, UniProt P10415); assay: Isothermal titration calorimetry; format: binding; settings: for Kd: SD
T1 sequence (P10415 1-205): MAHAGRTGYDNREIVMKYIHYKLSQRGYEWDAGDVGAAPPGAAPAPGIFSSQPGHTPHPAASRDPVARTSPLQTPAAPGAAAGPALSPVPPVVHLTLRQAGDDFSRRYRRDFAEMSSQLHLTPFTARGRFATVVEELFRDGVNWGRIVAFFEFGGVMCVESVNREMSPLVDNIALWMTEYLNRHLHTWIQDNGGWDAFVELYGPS

[2] = molecular target: T1, Human Bcl2 (residues 1-205); assay: ITC: effect of NaCl concentration on binding; settings: Sodium phosphate buffer, NaCl 0-500mM, 25°C, pH 7
BclXL = BclXL (Homo sapiens, UniProt Q07817); assay: In vitro binding of full-length Bad to BclXL; settings: unpublished observations
Chain of BclXL (Q07817 whole entry, species assumed): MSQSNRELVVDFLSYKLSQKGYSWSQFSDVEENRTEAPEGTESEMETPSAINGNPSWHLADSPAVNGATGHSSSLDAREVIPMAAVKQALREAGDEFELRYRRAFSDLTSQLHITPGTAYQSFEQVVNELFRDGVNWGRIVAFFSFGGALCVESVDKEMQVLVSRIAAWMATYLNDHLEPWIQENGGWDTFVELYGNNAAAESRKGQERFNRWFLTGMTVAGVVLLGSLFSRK

Bcl2 = Bcl2 (Homo sapiens, UniProt P10415); assay: In vitro binding of full-length Bad to Bcl2; settings: unpublished observations
Chain of Bcl2 (P10415 whole entry): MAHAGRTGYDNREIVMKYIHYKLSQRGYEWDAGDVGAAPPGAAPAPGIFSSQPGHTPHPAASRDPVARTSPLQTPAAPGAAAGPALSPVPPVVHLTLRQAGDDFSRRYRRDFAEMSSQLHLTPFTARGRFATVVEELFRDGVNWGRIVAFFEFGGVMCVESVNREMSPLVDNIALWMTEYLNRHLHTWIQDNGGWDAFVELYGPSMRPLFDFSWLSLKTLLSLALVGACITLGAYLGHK

Molecule	binding to Bcl2 under varied conditions ([1]; ITC, temperature, buffer or solution pH varied)	effect of increasing NaCl concentration on the binding (Kd) to Bcl2 [2]	Kd [1]	affinity of the full-length protein toward BclXL (BclXL)	affinity of the full-length protein toward Bcl2 (Bcl2)
ELEVECATQLRRFGDKLNFR [Noxa]	did not observe the binding	–	–	–	–
WAAQRYGRELRRMSDEFVDS [Bad]	–	enhancement of between two-to-five folds	4140 ± 800 nM	–	–
ASTKKLSESLKRIGDELDSN [Bax]	–	enhancement of between two-to-five folds	3100 ± 660 nM	–	–
EGSDALALRLACIGDEMDVS [Bik]	–	enhancement of between two-to-five folds	3780 ± 790 nM	–	–
DIIRNIARHLAQVGDSMDRS [Bid]	–	largely independent of salt concentration	2100 ± 410 nM	–	–
QWAREIGAQLRRMGDDLNAQ [Puma_A+4G]	–	–	2120 ± 420 nM	–	–
SAAQLTAARLKALADELHQR [Hrk_G+4A]	–	–	3840 ± 710 nM	–	–
CC[C@H](C)[C@H](NC(=O)[C@H](C)NC(=O)[C@H](CC(C)C)NC(=O)[C@H](CCC(N)=O)NC(=O)[C@H](CCCNC(=N)N)NC(=O)CNC(=O)[C@@H](NC(=O)[C@H](CCC(N)=O)NC(=O)CNC(=O)[C@H](CCSC)NC(=O)[C@@H](NC(=O)[C@@H](N)CO)[C@@H](C)O)C(C)C)C(=O)N[C@H](C(=O)NCC(=O)N[C@@H](CC(=O)O)C(=O)N[C@@H](CC(=O)O)C(=O)N[C@H](C(=O)N[C@@H](CC(N)=O)C(=O)N[C@@H](CCCNC(=N)N)C(=O)N[C@@H](CCCNC(=N)N)C(=O)O)[C@@H](C)CC)[C@@H](C)CC [Bak]	–	largely independent of salt concentration	1300 ± 250 nM	–	–
CC(C)C[C@H](NC(=O)[C@H](C)NC(=O)[C@H](CCCCN)NC(=O)[C@H](CC(C)C)NC(=O)[C@H](CCCNC(=N)N)NC(=O)[C@H](C)NC(=O)[C@H](C)NC(=O)[C@@H](NC(=O)[C@H](CC(C)C)NC(=O)[C@H](CCC(N)=O)NC(=O)[C@H](C)NC(=O)[C@H](C)NC(=O)[C@@H](N)CO)[C@@H](C)O)C(=O)NCC(=O)N[C@@H](CC(=O)O)C(=O)N[C@@H](CCC(=O)O)C(=O)N[C@@H](CC(C)C)C(=O)N[C@@H](Cc1c[nH]cn1)C(=O)N[C@@H](CCC(N)=O)C(=O)N[C@@H](CCCNC(=N)N)C(=O)O [Hrk]	–	enhancement of between two-to-five folds	25000 ± 8800 nM	–	–
QWAREIGAQLRRMADDLNAQ [Puma]	–	little or negligible effect	370 ± 70 nM	–	–
QAEVQIARKLQCIADQFHRL [Bmf]	–	little or negligible effect	300 ± 70 nM	–	–
B1	–	–	–	poor affinity	poor affinity
